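Dose response: 5 concentrations. Exposure: 48 h. Format: 96-well plates. Endpoint: linear interpolation; highest concentration if not reached. At the GI50, growth is halved.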 The source made the active and inactive calls. Rule as the data show it: active = GI50 up to about 1.1 µM and inactive = higher.
Columns and labels:
Assay in all cases: NCI tumour cell line growth inhibition, 48 h
[1] = test system: 786-0
[2] = test system: A549
[3] = test system: CAKI-1
[4] = test system: HCC 2998
[5] = test system: HCT-15
[6] = test system: IGROV-1
[7] = test system: KM12
[8] = test system: LOX IMVI
[9] = test system: MDA-MB-231
[10] = test system: NCI-H23
[11] = test system: OVCAR-4
[12] = test system: OVCAR-5
[13] = test system: SF-268
[14] = test system: SF-295
[15] = test system: SK-MEL-28
[16] = test system: SNB-19
[17] = test system: SW-620
[18] = test system: UO-31
[19] = test system: HL-60

SMILES	GI50 [1]	GI50 [2]	GI50 [3]	GI50 [4]	GI50 [5] [µM]	GI50 [6]	GI50 [7]	GI50 [8]	GI50 [9]	GI50 [10]	GI50 [11]	GI50 [12]	GI50 [13]	GI50 [14]	GI50 [15]	GI50 [16]	GI50 [17]	GI50 [18]	GI50 [19]
COc1cc(NP(=O)(Oc2ccccc2)Oc2ccccc2)ccc1Nc1c2ccccc2nc2c1[nH]c1ccccc12	0.278 µM (active)	0.16 µM (active)	0.261 µM (active)	4.36 µM (inactive)	1.63	0.0923 µM (active)	2.62 µM (inactive)	0.598 µM (active)	4.68 µM (inactive)	0.585 µM (active)	3.22 µM (inactive)	10.5 µM (inactive)	6.52 µM (inactive)	0.344 µM (active)	16.2 µM (inactive)	0.755 µM (active)	1.22 µM (inactive)	0.617 µM (active)	–
Cc1n[nH]c(=O)n1/N=C/c1cccc(Cl)c1	> 100 µM (inactive)	> 100 µM (inactive)	> 100 µM (inactive)	> 100 µM (inactive)	> 100	–	> 100 µM (inactive)	–	> 100 µM (inactive)	> 100 µM (inactive)	76.9 µM (inactive)	> 100 µM (inactive)	63.7 µM (inactive)	> 100 µM (inactive)	> 100 µM (inactive)	> 100 µM (inactive)	> 100 µM (inactive)	> 100 µM (inactive)	–
Cc1c2c(OCC(O)CN3CCN(c4ccccc4)CC3)nn(C)c(=O)c2c(C)n1-c1ccccc1 (centres undefined)	18.8 µM (inactive)	24.7 µM (inactive)	31.6 µM (inactive)	29.7 µM (inactive)	20.3	35.2 µM (inactive)	29.3 µM (inactive)	–	25.6 µM (inactive)	20.5 µM (inactive)	30.3 µM (inactive)	23.4 µM (inactive)	26.2 µM (inactive)	21.5 µM (inactive)	18.4 µM (inactive)	34.3 µM (inactive)	29.9 µM (inactive)	18.9 µM (inactive)	20.1 µM (inactive)
COC1CC(C)(N)C(O)C(C)O1 (centres undefined)	> 100 µM (inactive)	> 100 µM (inactive)	> 100 µM (inactive)	> 100 µM (inactive)	> 100	> 100 µM (inactive)	> 100 µM (inactive)	> 100 µM (inactive)	> 100 µM (inactive)	> 100 µM (inactive)	–	–	> 100 µM (inactive)	> 100 µM (inactive)	> 100 µM (inactive)	> 100 µM (inactive)	> 100 µM (inactive)	> 100 µM (inactive)	> 100 µM (inactive)

— ChEMBL document CHEMBL1201862, “PubChem BioAssay data set” (2004)
